According to PubChem BioAssay AID1963447 (Molecular Pharmacology Branch, DTP, NCI, 2024):
Blank lines part the entries; values can stand above or below the compound they belong to.

Test system: 885512-296-R-J2-PDC complex spheroid growth, % test/control
Assay: Anticancer human tumor 885512-296-R-J2-PDC patient-derived breast carcinoma cell line growth inhibition [Asc]
Conditions: for IC50: curve of first compound; for viability, T/C: stronger effect = lower value
How it was run: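 Tumor cells were grown as multicellular spheroids with stromal HUVEC and mesenchymal stem cells and treated singly or in combination. Concentrations fell in half-log steps from the clinical Cmax, or from 10 microM where none was known.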
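Note: spheroids exposed to compounds for seven days.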
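Throughout, for viability, T/C: 100% = DMSO vehicle control wells.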

IC50 (second compound 0.1 µM): > 10000 nM | IC50 (second compound 0.316 µM): > 10000 nM | IC50 (second compound 1 µM): > 10000 nM | IC50 (second compound 3.16 µM): > 10000 nM | IC50 (second compound 10 µM): > 10000 nM
SMILES: C#Cc1c(F)ccc2cc(O)cc(-c3ncc4c(N5CC6CCC(C5)N6)nc(OCC56CCCN5CC(F)C6)nc4c3F)c12 (stereo not given) + Cc1c(S(C)(=O)=O)c(-c2cc(F)cc(N3CCN(c4ccc(NS(=O)(=O)c5ccc(NC(CCN6CCC(C(=O)OCCCP(=O)(O)O)CC6)CSc6ccccc6)c(S(=O)(=O)C(F)(F)F)c5)cc4)CC3)c2)c(-c2ccc(Cl)cc2)n1C(C)C
viability, T/C (second compound 0.1 µM, first compound 0.0316 µM): 96.9% | viability, T/C (second compound 0.1 µM, first compound 0.1 µM): 78.9% | viability, T/C (second compound 0.1 µM, first compound 0.316 µM): 85.1% | viability, T/C (second compound 0.1 µM, first compound 1 µM): 77.4% | viability, T/C (second compound 0.1 µM, first compound 3.16 µM): 74.1% | viability, T/C (second compound 0.1 µM, first compound 10 µM): 70.9% | viability, T/C (second compound 0.316 µM, first compound 0.0316 µM): 96.8% | viability, T/C (second compound 0.316 µM, first compound 0.1 µM): 105% | viability, T/C (second compound 0.316 µM, first compound 0.316 µM): 90.9% | viability, T/C (second compound 0.316 µM, first compound 1 µM): 72.4% | viability, T/C (second compound 0.316 µM, first compound 3.16 µM): 95.4% | viability, T/C (second compound 0.316 µM, first compound 10 µM): 71% | viability, T/C (second compound 1 µM, first compound 0.0316 µM): 88.3% | viability, T/C (second compound 1 µM, first compound 0.1 µM): 82.9% | viability, T/C (second compound 1 µM, first compound 0.316 µM): 93% | viability, T/C (second compound 1 µM, first compound 1 µM): 66.6% | viability, T/C (second compound 1 µM, first compound 3.16 µM): 86% | viability, T/C (second compound 1 µM, first compound 10 µM): 66.9% | viability, T/C (second compound 3.16 µM, first compound 0.0316 µM): 88.3% | viability, T/C (second compound 3.16 µM, first compound 0.1 µM): 112% | viability, T/C (second compound 3.16 µM, first compound 0.316 µM): 82.7% | viability, T/C (second compound 3.16 µM, first compound 1 µM): 76.5% | viability, T/C (second compound 3.16 µM, first compound 3.16 µM): 79.8% | viability, T/C (second compound 3.16 µM, first compound 10 µM): 76.4% | viability, T/C (second compound 10 µM, first compound 0.0316 µM): 115% | viability, T/C (second compound 10 µM, first compound 0.1 µM): 112% | viability, T/C (second compound 10 µM, first compound 0.316 µM): 101% | viability, T/C (second compound 10 µM, first compound 1 µM): 117% | viability, T/C (second compound 10 µM, first compound 3.16 µM): 103% | viability, T/C (second compound 10 µM, first compound 10 µM): 51.4%

IC50 (second compound 0.1 µM): 275 nM | IC50 (second compound 0.316 µM): 275 nM | IC50 (second compound 1 µM): 172 nM | IC50 (second compound 3.16 µM): 167 nM | IC50 (second compound 10 µM): > 3000 nM
SMILES: Cc1nc(N2CCC3(CC2)COC(C)C3N)c(CO)nc1Sc1ccnc(N)c1Cl (stereo not given) + Cc1c(S(C)(=O)=O)c(-c2cc(F)cc(N3CCN(c4ccc(NS(=O)(=O)c5ccc(NC(CCN6CCC(C(=O)OCCCP(=O)(O)O)CC6)CSc6ccccc6)c(S(=O)(=O)C(F)(F)F)c5)cc4)CC3)c2)c(-c2ccc(Cl)cc2)n1C(C)C
viability, T/C (second compound 0.1 µM, first compound 0.00949 µM): 83.7% | viability, T/C (second compound 0.1 µM, first compound 0.03 µM): 67.7% | viability, T/C (second compound 0.1 µM, first compound 0.0949 µM): 58% | viability, T/C (second compound 0.1 µM, first compound 0.3 µM): 50.4% | viability, T/C (second compound 0.1 µM, first compound 0.949 µM): 42.1% | viability, T/C (second compound 0.1 µM, first compound 3 µM): 32.4% | viability, T/C (second compound 0.316 µM, first compound 0.00949 µM): 76.5% | viability, T/C (second compound 0.316 µM, first compound 0.03 µM): 63.7% | viability, T/C (second compound 0.316 µM, first compound 0.0949 µM): 62.7% | viability, T/C (second compound 0.316 µM, first compound 0.3 µM): 46.2% | viability, T/C (second compound 0.316 µM, first compound 0.949 µM): 42.8% | viability, T/C (second compound 0.316 µM, first compound 3 µM): 37% | viability, T/C (second compound 1 µM, first compound 0.00949 µM): 76.7% | viability, T/C (second compound 1 µM, first compound 0.03 µM): 60.2% | viability, T/C (second compound 1 µM, first compound 0.0949 µM): 59.1% | viability, T/C (second compound 1 µM, first compound 0.3 µM): 41.8% | viability, T/C (second compound 1 µM, first compound 0.949 µM): 42.6% | viability, T/C (second compound 1 µM, first compound 3 µM): 34.7% | viability, T/C (second compound 3.16 µM, first compound 0.00949 µM): 94.5% | viability, T/C (second compound 3.16 µM, first compound 0.03 µM): 67.4% | viability, T/C (second compound 3.16 µM, first compound 0.0949 µM): 56.8% | viability, T/C (second compound 3.16 µM, first compound 0.3 µM): 45.4% | viability, T/C (second compound 3.16 µM, first compound 0.949 µM): 39.5% | viability, T/C (second compound 3.16 µM, first compound 3 µM): 33.4% | viability, T/C (second compound 10 µM, first compound 0.00949 µM): 117% | viability, T/C (second compound 10 µM, first compound 0.03 µM): 110% | viability, T/C (second compound 10 µM, first compound 0.0949 µM): 96.2% | viability, T/C (second compound 10 µM, first compound 0.3 µM): 113% | viability, T/C (second compound 10 µM, first compound 0.949 µM): 95.9% | viability, T/C (second compound 10 µM, first compound 3 µM): 85.9%
